± gives the uncertainty stated by the source.
Test system: ozone
Test: apparent second-order rate constant for reaction with ozone (kapp,O3) (M-1 s-1); higher = faster oxidation by ozone
Conditions: pH 7; temperature: 22 C; OH radical scavenger: tBuOH 80 mM; phosphate 4 mM
Procedure, shortened: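 Ozone was added as a solution at compound:O3 molar ratios of 0.0025–100 to target/competitor mixtures held at 22 ± 1 °C, with each compound at 10 μg L–1 before ozone addition. The mixtures were in 4 mM phosphate buffer, pH 7, containing 80 mM tert-butanol, and runs were done in triplicate on three days. Peak-area abatement between 10% and 90% was measured by HPLC-HRMS/MS and regressed against that of competitors with known constants, with each regression requiring ≥10 points, R2 >0.9 and a slope of 0.1–10. Apparent second-order rate constants for reaction with ozone were obtained by multicompound competition kinetics and reported as the mean (± SD) over the competitors that qualified.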

apparent second-order rate constant | Structure (SMILES)
104 ± 5.6 | CC12C=CC(=O)C=C1CCC1C2C(O)CC2(C)C1CCC2(O)C(=O)CO (configuration not stated) [Prednisolone]
324 ± 15 | CC12C=CC(=O)C=C1CCC1C2C(=O)CC2(C)C1CCC2(O)C(=O)CO (configuration not stated) [Prednisone]
2.4 ± 0.3 | CCC1(c2ccccc2)C(=O)NCNC1=O [Primidone]
174000 ± 16000 | CC(C)NCC(O)COc1cccc2ccccc12 (configuration not stated) [Propanolol]
3.45e+06 ± 340000 | CNC(=C[N+](=O)[O-])NCCSCc1ccc(C[N+](C)(C)[O-])o1 [Ranitidine-N-oxide]
1.75e+06 ± 70000 | CNC(=C[N+](=O)[O-])NCC[S+]([O-])Cc1ccc(CN(C)C)o1 (configuration not stated) [Ranitidine-S-oxide]
6.4e+06 ± 500000 | CNC(=C[N+](=O)[O-])NCCSCc1ccc(CN(C)C)o1 [Ranitidine]
3250 ± 260 | CC(C)c1nc(N(C)S(C)(=O)=O)nc(-c2ccc(F)cc2)c1C=CC(O)CC(O)CC(=O)O (configuration not stated) [Rosuvastatin]
16.7 ± 1.8 | C[C@H](C[C@@H](Cc1ccc(-c2ccccc2)cc1)NC(=O)CCC(=O)O)C(=O)O [Sacubitrilat (LBQ657)]
< 0.401 | O=C(O)CCC(=O)O [Succinic acid]
1.23e+06 ± 110000 | Nc1ccc(S(=O)(=O)Nc2ncccn2)cc1 [Sulfadiazine]
1.53e+06 ± 100000 | COc1cc(NS(=O)(=O)c2ccc(N)cc2)nc(OC)n1 [Sulfadimethoxine]
933000 ± 81000 | Cc1cc(C)nc(NS(=O)(=O)c2ccc(N)cc2)n1 [Sulfamethazine]
37000 ± 8000 | Cc1cc(N(C2OC(C(=O)O)C(O)C(O)C2O)S(=O)(=O)c2ccc(N)cc2)no1 (configuration not stated) [Sulfamethoxazole-N1-glucuronide]
537000 ± 180000 | Nc1ccc(S(=O)(=O)Nc2ccccn2)cc1 [Sulfapyridine]
9.8e+06 ± 700000 | Nc1ccc(S(=O)(=O)Nc2nccs2)cc1 [Sulfathiazole]
41 ± 5 | CC[N+]1([O-])CCCC1CNC(=O)c1cc(S(N)(=O)=O)ccc1OC (configuration not stated) [Sulpiride-N-oxide]
1.75e+06 ± 70000 | CCN1CCCC1CNC(=O)c1cc(S(N)(=O)=O)ccc1OC (configuration not stated) [Sulpiride]
111 ± 5 | CCCc1nc2c(C)cc(-c3nc4ccccc4n3C)cc2n1Cc1ccc(-c2ccccc2C(=O)OC2OC(C(=O)O)C(O)C(O)C2O)cc1 (configuration not stated) [Telmisartan-O-acyl-glucuronide]
120 ± 6.1 | CCCc1nc2c(C)cc(-c3nc4ccccc4n3C)cc2n1Cc1ccc(-c2ccccc2C(=O)O)cc1 [Telmisartan]
1200 ± 65 | Cn1cnc2c1c(=O)[nH]c(=O)n2C [Theobromine]
885000 ± 78000 | Cn1c(=O)c2[nH]cnc2n(C)c1=O [Theophylline]
17400 ± 1700 | Cc1ccc(C(=O)C(C)CN2CCCCC2)cc1 (configuration not stated) [Tolperisone]
214 ± 10 | CC(C)NC(=O)NS(=O)(=O)c1cnccc1Nc1cccc(C(=O)O)c1 [Torasemide carboxylic acid]
2990 ± 260 | Cc1cccc(Nc2ccncc2S(=O)(=O)NC(=O)NC(C)C)c1 [Torasemide]
1.31e+07 ± 1.6e+06 | O=c1n(CCCN2CCN(c3cccc(Cl)c3)CC2)nc2ccccn12 [Trazodone]
4.8e+06 ± 300000 | CC(CN1c2ccccc2CCc2ccccc21)C[N+](C)(C)[O-] (configuration not stated) [Trimipramine-N-oxide]

Structure (SMILES) | apparent second-order rate constant
CC(C)CC(CN)CC(=O)O (configuration not stated) [Pregabalin] | 15.6 ± 1.1
CNC(C)C(O)c1ccccc1 (configuration not stated) [Pseudoephedrine] | 1370 ± 110
O=C(O)C(c1ccccc1)C1CCCCN1 (configuration not stated) [Ritalinic acid] | 139 ± 7.2
CCC(c1cccc(OS(=O)(=O)O)c1)C(C)CN(C)C (configuration not stated) [Tapentadol-O-sulfate] | 1530 ± 150
CCC(c1cccc(O)c1)C(C)CN(C)C (configuration not stated) [Tapentadol] | 1.83e+06 ± 140000
